What was measured:
[1] = Light-off Test Method (time to maximum temperature in polymerization of 1-octene); conditions: for Light-off Performance (Time to Maximum (minutes)): 8 micromoles precatalyst, 0.16 g spray dried methylaluminoxane, 11 mL 1-octene
Experimental: Light-off Test Method: Under an atmosphere of nitrogen in a glovebox, charge a 40 mL glass vial with a PTFE-coated, magnetic stir bar and 0.16 g of spray dried methylaluminoxane powder of Preparation 1A. To the charged vial add 11 mL of 1-octene, and then insert the vial into an insulated sleeve mounted on a magnetic stir plate turning at approximately 300 rotations per minute (rpm). To the insulated vial add 8 micromoles (μmol) of precatalyst (e.g., compound (1) or HN5Zr dibenzyl). Cap the vial with a rubber septum. Insert a thermocouple probe through the rubber septum into the vial such that the tip of the thermocouple probe is below the liquid level. Record the temperature of the contents of the vial at 5 second intervals, continuing until after the maximum temperature is reached. Download the temperature and time data to a spreadsheet, and plot thermo-kinetic profiles for analysis.

[2] = Solubility Test Method (solubility in hexanes); assay type: physicochemical; conditions: hexanes containing at least 60 wt % n-hexane; room temperature and ambient pressure
Experimental: Solubility Test Method: to a 20-mL vial is added, at room temperature and ambient pressure, a known mass of test precatalyst (e.g., compound (1)) and a known volume of hexanes containing at least 60 weight percent n-hexane. A PTFE-coated magnetic stir bar is added and the mixture is allowed to stir for 1 hour before the vial is removed from the stir plate, and the mixture is allowed to sit overnight. The next day the suspension is filtered through a 0.4 μm PTFE syringe filter into a tared vial, giving a known mass of supernatant, and the hexanes are removed under reduced pressure, leaving a measurable mass of the compound of formula (1) from which wt. % solubility is calculated.

Compound: Cc1c(C)c(C)c([N-]CCNCC[N-]c2c(C)c(C)c(C)c(C)c2C)c(C)c1C.[Cl-].[Cl-].[Zr+4] [HN5Zr dichloride (CE1)]
- Light-off Performance (Time to Maximum (minutes)) [1]: 5.2 min

Compound: Cc1c(C)c(C)c([N-]CCNCC[N-]c2c(C)c(C)c(C)c(C)c2C)c(C)c1C.[CH2-]c1ccccc1.[CH2-]c1ccccc1.[Zr+4] [HN5Zr dibenzyl (CE2)]
- Light-off Performance (Time to Maximum (minutes)) [1]: 78.6 min
- Solubility in Hexanes (wt %) [2]: 0.03 wt %

Compound: bis(2-(pentamethylphenylamido)ethyl)-amine zirconium(IV) bis-trimethylsilylmethyl [Compound (1A)]
- Light-off Performance (Time to Maximum (minutes)) [1]: 1.3 min
- time to maximum temperature, times better than HN5Zr dichloride (CE1) ([1]; relative to HN5Zr dichloride (CE1)): 4 times

— patent publication US11891464B2, “Alkane-soluble non-metallocene precatalysts” (Dow Global Technologies LLC, priority 2018, dated 2024)
